The values that follow come from patent US20150320709A1, “METHODS AND COMPOSITIONS FOR FACILITATING WEIGHT LOSS BY ADMINISTRATION OF THYROID HORMONES” (priority 2011, published 2015).

A short description of assay [1]: Circulating thyroid hormone labs (FT3, FT4, rT3, TSH) in weight loss program patients on thyroid hormone treatment. The format is in vivo, human. The source says:
FIG. 1 depicts hormonal responses to a hypocaloric state with subsequent treatment. Note: Time frames and shapes of response curves are approximated. Levels of all four hormones are normal before the diet (Time A). At time between time points B and D, TSH is dropping slightly to signal the thyroid gland to make less thyroid hormone. This drop is the mechanism to decrease metabolism in the hypocaloric state. At point C, free T3 begins to drop as rT3 increases. Also at time point C, different observations have been reported for changes in FT4: in our experience, FT4 also drops as indicated on the graph. In the literature, some report no change, whereas others report an increase in FT4. By the time of the blood sampling (time E), in our experience, patients whose FT3 and FT4 have dropped to the low end of normal (with possible above normal rT3 levels) are those experiencing symptoms of low thyroid. They may have any of the following symptoms: feeling cold, cold hands and feet, elevated diastolic blood pressure secondary to vasoconstriction, fatigue, depression, constipation, hair loss, dry skin, insomnia, as well as others. They have often hit a plateau of weight loss even though they have continued to maintain their hypocaloric diet and exercise program. At point F, we begin treatment with thyroid hormone (for example, T4 with T3, T3 alone, T3 with T2 and T4, or T2 alone. Between points F and G, FT3 and rT3 (and FT4 if T4 was administered) are returning to more normal levels, while TSH plummets, often to undetectable levels. At time point H, symptoms of low thyroid are resolved, the patient has no symptoms of hyperthyroidism, and if rT3 had risen and was treated appropriately, rT3 decreased.
The first patient example is a person, 5′2″, weight 268 lbs, body mass index (BMI) 49 (nl 19-24; overweight 25-29; obesity≧30). Baseline blood pressure was 110/74, blood sugar (BS) was 153 mg/dL 10 days after their first visit. Their medical problems at baseline included obesity, type 2 diabetes mellitus (DM2), high blood pressure (HTN), fatigue, depression, and asthma. Their medications included glipizide 10 mg daily, amitriptyline 50 mg daily, metoprolol 50 mg daily, furosemide 40 mg daily, potassium chloride, lisinopril 10 mg daily, Advair Discus 500/50 twice daily (bid), and montelukast 10 mg daily. They were started on our comprehensive program. Five months after starting their weight loss treatment, they developed symptoms of hypothyroidism with constipation and fatigue. They had lost 28 lbs by this time and was having difficulty losing more weight even though they were eating less than they were before their weight loss treatment began. At the start of treatment, their FT4 was 0.9 ng/dL (nl 0.7-1.48). At the time of their low thyroid symptoms, their FT3 was 2.9 pg/mL (nl 1.71-3.71) and their FT4 was 0.91 ng/dL (nl 0.7-1.48). They were then treated with thyroid hormone (desiccated thyroid with a ratio of T4:T3 of about 4:1) at 60 mg daily for 6 days to acclimate, then increased to 120 mg daily. […] After two years on their weight loss treatment, their weight was 231 lbs. […] We tested for rT3 at this point. Their labs on the 150 mg dose of desiccated thyroid were: rT3 394 pg/mL (nl 90-350), FT3 3.94 pg/mL (nl 1.71-3.71), and FT4 1.24 ng/dL (nl 0.7-1.48). The task of bringing down their rT3 was then addressed. Over a period of a few months, their desiccated thyroid hormone was discontinued and instead the patient was given gradually increasing doses of T3 only, starting at 20 mcg daily and gradually increasing the T3 to 60 mcg bid. Five months after starting on T3 with increasing doses, their weight had dropped to 209 lbs. Their BP was 118/66 mmHg with pulse of 74 on lisinopril 10 mg daily, metoprolol 50 mg bid, and furosemide 40 mg daily. Instead of glipizide, they were taking metformin 500 mg bid. […] Their most recent labs on 60 mcg bid of T3 were FT3 3.8 pg/mL (nl 1.71-3.71), FT4 0.64 ng/dL (nl 0.7-1.48) and rT3 137 pg/mL (nl 90-350). Four months prior to this visit their BS was 125 mg/dl. […]

Assay [2] in a line: Low thyroid symptoms / clinical status of weight loss program patients on thyroid hormone treatment. The format is in vivo, human. The following applies: for reported symptoms: Patient Example 4.

Take `N[C@@H](Cc1cc(I)c(Oc2ccc(O)c(I)c2)c(I)c1)C(=O)O` [T3, (2S)-2-amino-3-[4-(4-hydroxy-3-iodo-phenoxy)-3,5-diiodo-phenyl]propanoic acid]: the FT4 was 0.64 ng/dL in assay [1] (Patient Example 1, on 60 mcg bid, nl 0.7-1.48); 0.67 ng/dL in assay [1] (Patient Example 2, T3 only, 25 mcg bid, nl 0.93-1.70); “less than 0.1 ng/dL” in assay [1] (Patient Example 4, T3 50 mcg 2 PO q am and 1 PO 8-10 hours later, normal range 0.93-1.7). In addition, the FT3 in assay [1] (Patient Example 1, on 60 mcg bid, nl 1.71-3.71) is listed as 3.8 pg/mL; in assay [1] (Patient Example 2, T3 only, 25 mcg bid, nl 2.2-4.0), 2.5 pg/mL; in assay [1] (Patient Example 4, T3 50 mcg 2 PO q am and 1 PO 8-10 hours later, normal range 2.2-4.0), 7.0 pg/mL. In addition, the rT3 in assay [1] (Patient Example 1, on 60 mcg bid, nl 90-350) was 137 pg/mL; in assay [1] (Patient Example 2, T3 only, 25 mcg bid, nl 90-350), 193 pg/mL; in assay [1] (Patient Example 4, T3 50 mcg 2 PO q am and 1 PO 8-10 hours later, normal range 90-350) it was “less than 15 pg/mL”. The low thyroid symptoms entry in assay [2] (Patient Example 3, T3 25 mcg t.i.d. alone, about a week after stopping desiccated thyroid) was “low thyroid symptoms returned”. For the same molecule, the reported symptoms entry in assay [2] (T3 50 mcg 2 PO q am and 1 PO 8-10 hours later, initial visit) was “feeling cold, hair loss and nail peeling”; in assay [2] (same T3 dose (not decreased), over 6 weeks later), “continued to report suffering from fatigue and coldness”.
